The supplement of paper PMC10307832

Legend:
Assay in all cases: relative viability (nuclei count vs DMSO), 5 days (fraction); higher = more cells survive
AT-7519 + Vorinostat = compound: O=C(NC1CCNCC1)c1n[nH]cc1NC(=O)c1c(Cl)cccc1Cl [AT-7519] + O=C(CCCCCCC(=O)Nc1ccccc1)NO [Vorinostat] (partner 1 µM)
Method in brief: (§1)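 For relative viability, nuclei counts in treated wells were divided by those in vehicle wells. Lung cancer cell lines had been pin-tool dosed in 1536-well plates the day after seeding and cultured for 5 days, then fixed and stained in one step (final 0.05% Triton X-100, 1% formaldehyde, 1 ug/ml Hoechst) and imaged at 4×. Doses were one drug alone or a fixed anchor-drug dose plus five library-drug doses (not always all listed) in √10 steps, and values are duplicate-plate medians.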

[1] = compound: C1=CC2=C(C=C(C(=C2N=C1)O)N=NC3=CC4=C(C=C3)C=C(C=C4)S(=O)(=O)O)S(=O)(=O)O + Nc1ncn([C@H]2C[C@H](O)[C@@H](CO)O2)c(=O)n1 [Decitabine] (partner 2 µM)
Method in brief: as §1

AT-7519 + Tozasertib = compound: O=C(NC1CCNCC1)c1n[nH]cc1NC(=O)c1c(Cl)cccc1Cl [AT-7519] + Cc1cc(Nc2cc(N3CCN(C)CC3)nc(Sc3ccc(NC(=O)C4CC4)cc3)n2)n[nH]1 [Tozasertib] (partner 0.1 µM)
Method in brief: as §1

[2] = compound: C1=CC2=C(C=C(C(=C2N=C1)O)N=NC3=CC4=C(C=C3)C=C(C=C4)S(=O)(=O)O)S(=O)(=O)O + C[C@@H](Oc1cc(-c2cnn(C3CCNCC3)c2)cnc1N)c1c(Cl)ccc(F)c1Cl [Crizotinib] (partner 1 µM)
Method in brief: as §1

Cell Line	relative viability (AT-7519 + Vorinostat; first compound 0.01 µM)	relative viability (AT-7519 + Vorinostat; first compound 0.03162 µM)	relative viability (AT-7519 + Vorinostat; first compound 0.3162 µM)	relative viability (AT-7519 + Vorinostat; first compound 1 µM)	relative viability ([1]; first compound 0.08 µM)	relative viability ([1]; first compound 0.253 µM)	relative viability ([1]; first compound 0.8 µM)	relative viability ([1]; first compound 2.53 µM)	relative viability ([1]; first compound 8 µM)	relative viability (AT-7519 + Tozasertib; first compound 0.03162 µM)	relative viability (AT-7519 + Tozasertib; first compound 0.3162 µM)	relative viability (AT-7519 + Tozasertib; first compound 1 µM)	relative viability ([2]; first compound 0.08 µM)	relative viability ([2]; first compound 0.253 µM)	relative viability ([2]; first compound 0.8 µM)	relative viability ([2]; first compound 2.53 µM)	relative viability ([2]; first compound 8 µM)	relative viability (AT-7519 + Tozasertib; first compound 0.01 µM)
NCI-H522	0.933	0.815	0.963	1.05	0.561	0.644	0.689	0.683	0.6	0.514	0.57	0.486	–	–	–	–	–	–
NCI-H838	0.758	0.653	0.62	0.153	0.469	0.441	0.434	0.514	0.44	0.277	0.291	0.187	0.992	0.734	0.848	0.943	0.811	0.315
SW 900	0.398	0.482	0.294	0.493	0.442	0.412	0.448	0.473	0.538	0.484	0.639	0.375	–	–	–	–	–	0.613
A549	–	–	–	–	0.4	0.252	0.286	0.231	0.207	–	–	–	0.909	0.738	0.754	0.694	0.754	–
A-427	0.894	0.863	0.927	0.768	0.558	0.554	0.534	0.547	0.551	0.211	0.207	0.14	1.05	0.814	0.978	1	0.876	0.26
NCI-H1792	–	–	–	–	0.627	0.483	0.508	0.5	0.473	–	–	–	1.15	0.947	0.933	1.02	0.961	–
LCLC-97TM1	0.955	0.703	0.526	0.379	0.217	0.29	0.198	0.25	0.204	0.208	0.27	0.124	–	0.35	–	0.424	0.325	0.24
NCI-H1703	–	–	–	–	–	–	–	–	–	–	–	–	0.795	0.717	0.526	0.559	0.735	–
LCLC-103H	0.848	0.774	0.768	0.814	0.811	0.774	0.655	0.744	0.732	0.408	0.511	0.432	1.16	1.02	0.978	1.07	1.06	0.489
PC-3 [JPC-3]	0.667	0.773	0.884	1.17	0.843	0.793	0.833	0.883	0.814	0.903	0.88	0.902	1.07	1.02	0.999	0.978	0.966	0.93
BEN	0.6	0.537	0.593	0.579	0.735	0.745	0.635	0.804	0.688	0.459	0.501	0.597	1.14	0.872	0.792	0.925	0.813	0.391
NCI-H1666	0.998	0.931	1.03	0.959	0.821	0.711	0.716	0.815	0.747	0.571	0.501	0.413	1.22	0.949	0.95	1.06	0.946	0.539
LC-2-ad	0.717	0.665	0.748	0.781	0.909	0.744	0.834	0.808	0.812	0.467	0.519	0.266	0.534	0.412	0.462	0.452	0.411	0.49
SK-LU-1	0.805	0.725	0.693	0.544	0.795	0.679	0.664	0.616	0.655	0.364	0.254	0.264	1	0.952	0.854	0.923	0.93	0.306
ChaGo-K-1	0.734	0.741	0.797	0.752	0.54	0.534	0.532	0.439	0.528	0.23	0.215	0.204	1.12	1.16	1.13	1.21	1.12	0.224
Calu-6	–	–	–	–	–	–	–	–	–	–	–	–	0.96	0.761	0.763	0.817	0.821	–
NCI-H1648	0.479	–	0.29	0.3	–	0.525	–	–	0.551	–	0.371	0.405	–	–	–	–	–	0.37
EBC-1	–	–	–	–	–	–	–	–	–	–	–	–	0.231	0.197	0.197	0.183	0.162	–
NCI-H1299	–	–	–	–	–	–	–	–	–	–	–	–	0.892	0.971	0.933	0.943	0.988	–
NCI-H2228	0.406	0.671	0.572	0.517	–	–	–	–	–	0.273	0.227	0.179	0.399	0.597	0.642	0.587	0.482	0.253
NCI-H2342	0.773	0.696	0.772	0.631	0.793	0.705	0.724	0.806	0.705	0.52	0.493	0.557	–	–	–	–	–	0.483
IA-LM	0.607	0.501	1.01	0.723	–	–	–	–	–	–	–	–	1.16	0.602	0.822	0.757	0.9	–
NCI-H1793	0.514	0.849	0.615	0.767	0.527	0.521	0.409	0.47	0.49	0.323	0.33	0.312	–	–	–	–	–	0.32
CAL-12T	0.777	0.653	0.543	0.108	–	–	–	–	–	0.33	0.213	0.122	0.69	0.528	0.711	0.932	0.717	0.298
